Data published in US20110034551A1, “METHODS OF INCREASING SARCOSINE LEVELS FOR TREATING SCHIZOPHRENIA” (BG MEDICINE, INC., priority 2007, published 2011).

Tests used:
glycine transport = conditions: other studies; read-out: IC50 for inhibition of glycine transport; cited from earlier work
schizophrenia = conditions: 2 g/day as add-on therapy to certain antipsychotics (but not clozapine), schizophrenia patients; cited from earlier work
[1] = target: T1, type 1 glycine transporter, GLYT1 (Rattus norvegicus, UniProt P28572); conditions: rat brain aggregates; Atkinson, et al. 2001; read-out: IC50 for inhibition of glycine transport; cited from earlier work
T1 construct: glycine transport in rat brain aggregates; host or cells: rat brain aggregates (endogenous protein)
T1 sequence (P28572 1-638): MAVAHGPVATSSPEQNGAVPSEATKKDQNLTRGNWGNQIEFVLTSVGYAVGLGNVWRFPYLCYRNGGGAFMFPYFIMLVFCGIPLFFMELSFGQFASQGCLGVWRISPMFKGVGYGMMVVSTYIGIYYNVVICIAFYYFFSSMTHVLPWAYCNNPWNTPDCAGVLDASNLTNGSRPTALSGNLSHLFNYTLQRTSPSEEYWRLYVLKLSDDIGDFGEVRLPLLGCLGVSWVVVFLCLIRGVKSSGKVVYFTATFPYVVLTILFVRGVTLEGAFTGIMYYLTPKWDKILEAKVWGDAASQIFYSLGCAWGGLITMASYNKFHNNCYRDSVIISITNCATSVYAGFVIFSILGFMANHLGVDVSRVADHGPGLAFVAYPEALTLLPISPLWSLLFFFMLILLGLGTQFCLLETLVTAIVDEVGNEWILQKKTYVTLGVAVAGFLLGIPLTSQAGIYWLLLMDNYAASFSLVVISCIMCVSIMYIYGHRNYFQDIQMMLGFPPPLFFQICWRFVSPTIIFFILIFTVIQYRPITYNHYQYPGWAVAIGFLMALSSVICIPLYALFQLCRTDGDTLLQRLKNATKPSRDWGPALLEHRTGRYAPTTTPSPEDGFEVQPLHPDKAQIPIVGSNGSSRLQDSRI

plasma sarcosine = assay: 28-day oral dosing study in rats, plasma sarcosine abundance by Polar LC/MS and GC/MS; format: in vivo, rat; conditions: 300 mg/kg daily oral, end of 28-day treatment
From the text: Fenofibrate (Sigma F-6020, Lot. 064K1584) and MPC-1 (Mitsubishi Pharma Corporation, Lot. F) were used in this study. These test substances were stored at room temperature.
Seventy-three male Crj:CD(SD)IGS rats (4.5 weeks old) were quarantined and acclimated for seven days after receipt. Two days before the initiation of dosing (Day −2), rats which had no abnormalities in clinical observation and body weight during the quarantine and acclimation period were selected and assigned to 5 groups using the stratified-by-weight randomization method to yield approximately the same mean body weights amongst the study groups.
The rats were dosed by oral gavage using a disposable stomach tube connecting to a syringe, at the dose volume of 5 mL/kg. The dosing was conducted once daily for 28 days. A control group was dosed with the vehicle only. Individual doses were calculated based on the most recently recorded body weights.
Preparation of dosing suspensions was as follows. The specified amount of test substance for each dose level was weighed and crushed with an agate mortar and a pestle. […]
Based on the total number of samples, the batches of samples were set up according to a batching scheme. Each sample was analyzed in duplicate. […] Each batch is analyzed in one analytical run. […]
All compounds eluting from the GC/MS column were detected in full scan mode. […]

SMILES | IC50 (glycine transport) [µM] | effect on symptoms of schizophrenia (schizophrenia) | IC50 [1] [µM] | median fold change in plasma sarcosine abundance relative to vehicle (plasma sarcosine; GC/MS platform) | median fold change in plasma sarcosine abundance relative to vehicle (plasma sarcosine; Polar LC/MS platform)
CNCC(=O)O [sarcosine, N-methylglycine] | ~100 | additional reductions in both positive and negative symptomatology | 13 |  | 
CC(C)OC(=O)C(C)(C)Oc1ccc(C(=O)c2ccc(Cl)cc2)cc1 [fenofibrate] |  |  |  | 3.74 | 4.25
